From patent EP0772773B1, “Src SH3 BINDING PEPTIDES AND METHODS OF ISOLATING AND USING SAME” (THE UNIVERSITY OF NORTH CAROLINA, priority 1994, dated 2006)
Entries after “also recorded” stand apart in the source; their conditions may differ.

Experiments:
[1] = target: Src and PI-3' Kinase SH3 domains; conditions: Yu et al. / Chen et al., biased library peptides; read-out: binding affinity; cited from earlier work
NIH 3T3 fibroblasts = assay: Fluorescence staining of fixed fibroblasts with biotinylated peptides and streptavidin-Cy3; assay type: cell-based; conditions: fixed NIH 3T3 fibroblasts; biotinylated peptide, streptavidin-Cy3; Figure 11
Protocol: Thus, NIH 3T3 fibroblasts were cultured in vitro on glass coverslips coated with fibronectin. After two days of growth at 37 °C, the cells were fixed for one hour at room temperature in the presence of 2% paraformaldehyde (pH 7.5). The coverslips were washed with PBS-0.1% Tween 20 several times to remove the fixative. Next, the coverslips were dipped into acetone (chilled at -20 °C) for approximately 20 seconds and allowed to air-dry. The coverslips were washed again with PBS-0.1% Tween 20, containing BSA (1 mg/mL), and incubated for 2 hours at room temperature with different biotinylated peptides in PBS-0.1% Tween 20. The coverslips were washed and then incubated with 1 mg/mL streptavidin-Cy3 (Jackson Immunoresearch Co., West Grove, PA) for 1 hour at room temperature. Finally, the coverslips were washed in PBS-0.1% Tween 20, mounted in a glycerol solution on a glass slide, and viewed with a Nikon Optiphot epifluorescence microscope and a 60x oil immersion lens.

Yes SH3-GST = assay: Biotinylated synthetic peptide direct binding ELISA on immobilized GST-SH3 fusion; conditions: 10 µM biotinylated peptide, absorbance at 405 nm, Figure 8
Excerpt: (§1) The preparation of Src-GST fusion protein was first described by Smith and Johnson, in Gene (1988) 67:31, the disclosure of which is incorporated by reference herein. Briefly, pGEX-derived (Pharmacia, Piscataway, NJ) constructs expressing GST fusion proteins containing the SH3 domains of Src, Grb2, Crk, Abl, or PLCγ were obtained from Dr. Channing Der (University of North Carolina at Chapel Hill.), a construct expressing the SH3 domain of Yes was obtained from Dr. Marius Sudol (Rockefeller University). The use of the pGEX bacterial expression vector for the production of GST-SH3 fusion proteins is well-known to those in the art. See, e.g., Cicchetti, P. et al., in Science (1992) 257:803-806. Briefly, the coding region for a particular SH3 domain can be fused in-frame at the Bam HI site of pGEX-2T. Thus, fusion proteins were prepared as per the manufacturer's instructions, and quantified by Coomassie Blue staining of SDS-polyacrylamide gels. Microtiter wells were coated with 5-20 µg GST-SH3 fusion protein in 100 mM NaHCO3, pH 8.5, blocked with 100 mM NaHCO3 (pH 8.5) 1% BSA, and washed. All washes consisted of five applications of 1XPBS, 0.1% Tween 20, 0.1% BSA (Buffer A). Where appropriate, the amount of protein bound to each well was quantified with an anti-GST antibody-based ELISA (Pharmacia, Piscataway, NJ), and with a GST-binding phage, isolated during the course of this work.
(§2) Peptides were obtained from Research Genetics (Birmingham, AL), Chiron Mimotopes (Victoria, Australia), or synthesized by conventional techniques by Dr. J. Mark Carter of cytogen Corporation (Princeton, NJ). Peptide purity was assessed by HPLC and/or mass spectrometry. Biotinylated peptides were synthesized with either a KSGSG (SEQ ID NO:103) or a GSGS (SEQ ID NO:104) peptide linker (a spacer) between the biotin and the N-terminus of the peptide. Binding experiments were performed as above, excepting the use of 10 µM peptide instead of phage. Bound biotinylated peptide was detected with streptavidin conjugated to alkaline phosphatase (Sigma chemical Co., st. Louis, MO). After one hour incubation period at room temperature, the wells were washed, and a solution of 3 mM p-nitrophenyl-phosphate (US Biochemicals, Cleveland, OH) in 50 mM NaCO3 (pH 9.8), and 50 mM MgCl2 was added and color allowed to develop. Signals were read with an ELISA plate reader (Molecular Devices, Menlo Park, CA) at 405 nm wavelength. Binding experiments were performed in triplicate.

Src SH3-GST = assay: as above; conditions: 10 µM biotinylated peptide; streptavidin-alkaline phosphatase ELISA, absorbance at 405 nm; Figures 7 and 8
Excerpt: as §1
Bacterially expressed Src SH3 glutathione-s-transferase (Src-GST) fusion protein was purified from bacterial lysates using glutathione agarose 4B (Pharmacia), according to the manufacturer's instructions. Bound Src-GST fusion protein was eluted from the glutathione agarose with 10 mM glutathione in PBS. Microtiter wells were then coated with Src-GST fusion protein (1-10 µg/well, in 50 mM NaHCO3, pH 8.5) overnight at 4 °C. To block non-specific binding of phage, 100 µL 1% BSA in 100 mM NaHCO3, pH 8.5, was added to each well and allowed to incubate at room temperature for 1 hour. The wells were then washed five times with 200 µL PBS, 0.1% Tween 20, 0.1% BSA (Buffer A).
as §2

SH3 domains [2] = assay: Relative specificity of peptide binding across SH3 domains derived from different proteins; conditions: synthetic peptides, compared with 7-mer RPLPPLP, Figures 7 and 8
Excerpt: as §1, §2

SH3 domains [3] = assay: as above; conditions: not tested
Grb2-GST = assay: Biotinylated synthetic peptide direct binding ELISA on immobilized GST-SH3 fusion; conditions: 10 µM biotinylated peptide, absorbance at 405 nm, Figure 8
Excerpt: as §1, §2

PLCγ1 SH2SH3-GST = assay: as above; conditions: 10 µM biotinylated peptide, absorbance at 405 nm, Figure 8
Excerpt: as §1, §2

Row | Substance | fluorescence staining / cellular localization (NIH 3T3 fibroblasts) | binding to Src SH3-GST (Src SH3-GST) | relative binding affinity / specificity for SH3 domains (SH3 domains [2]) | other results
1 | RKLPPRPRR ["composite" peptide of the literature] | – | – | – | Kd [1]: 7.6 µM
2 | biotin-spacer-VLKRPLPIPPVTR | bright display of fluorescence activity | – | – | –
3 | biotin-spacer-GILAPPVPPRNTR | bright display of fluorescence activity | – | – | –
4 | RSTPRPLPMLPTTR | – | much more avidly than the 7-mer; also recorded: strong specific binding affinity | highly specific for SH3 domain of Src, Yes, and other Src-related proteins | binding to Yes SH3-GST (Yes SH3-GST): much more avidly than the 7-mer
5 | RSTPRPLPPLPTTR [representative consensus motif with R8C.YES3.5 flanking residues] | localize within cellular compartments thought to contain Src or Src-related proteins | much more avidly than the 7-mer; also recorded: strong specific binding affinity | highly specific for SH3 domain of Src, Yes, and other Src-related proteins | binding to Yes SH3-GST (Yes SH3-GST): much more avidly than the 7-mer
6 | RSTPAPPVPPRTTR | – | – | – | surmised binding to a variety of SH3 domains (SH3 domains [3]): strong but generic binding
7 | GTVEPVPPPVPPRRRPESA [reference compound] | – | less well than the library-derived peptides | – | –
8 | GPHRRLPPTPATR | – | much more avidly than the 7-mer | specific to Src family SH3 domains | binding to Grb2 SH3 domain (Grb2-GST): little affinity; binding to PLCγ SH3 domain (PLCγ1 SH2SH3-GST): little affinity; binding to Yes SH3-GST (Yes SH3-GST): much more avidly than the 7-mer; relative binding affinity / specificity for SH3 domains (SH3 domains [2]; listed as GPHRRLPPPTPATR): avid binding affinity to SH3 domains relative to the 7-mer
9 | biotin-spacer-LAPPKPPLPEGEV [reference compound] | relatively "dark" features | – | – | –
10 | biotin-spacer-RSTPRPLPPLPTTR | bright display of fluorescence activity | – | – | –
11 | KISPPTPKPKPPRPLPV [reference compound] | – | less well than the library-derived peptides | – | –
12 | ANPSPATRPLPTR | – | – | binding affinities comparable to the core consensus sequence; also recorded: avid binding affinity to SH3 domains relative to the 7-mer | relative binding affinity / specificity for SH3 domains (SH3 domains [2]; listed as AHPSPATRPLPTR): Src family specificity similar to GPHRRLPPTPATR
13 | GILAPPVPPRNTR | localize within cellular compartments thought to contain Src or Src-related proteins | much more avidly than the 7-mer | binds generically to a broad range of SH3 domains; also recorded: avid binding affinity to SH3 domains relative to the 7-mer; also recorded: more generic SH3 domain-binding characteristics | binding to Yes SH3-GST (Yes SH3-GST): much more avidly than the 7-mer
14 | RPLPPLP | – | only weakly | less effective in binding to target SH3 domains | –
